The values below come from patent US20110015371A1 (Vertex Pharmaceuticals Incorporated, priority 1994, published 2011).

The test system of data set [1] is Human Peripheral Blood Mononuclear Cells (PBMC) or Enriched Adherent Mononuclear Cells. Briefly: Cell assay: IL-1β assay with human PBMC or enriched adherent mononuclear cells. The class given is cell-based. Particulars: LPS-stimulated cells, mature IL-1β in supernatant by ELISA. Summed up:
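Human PBMC (suspension at 6×10^6 cells/ml) or adherent monocytes enriched by 1 h plating (2.5−3.0×10^5 cells/well) were stimulated with 5 ng/ml LPS (final) plus compound (5-6 dilutions, 0.1% DMSO final) for 16-18 hr at 37° C. Mature IL-1β in supernatants quantified by ELISA; duplicate cultures, duplicate ELISAs.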
On the technique in general: In an ELISA, binding on a coated surface is turned into a signal by an enzyme label.

Data set [2] addresses T1, ICE (Homo sapiens, UniProt P29466).
T1 sequence (P29466 120-297 limits assumed): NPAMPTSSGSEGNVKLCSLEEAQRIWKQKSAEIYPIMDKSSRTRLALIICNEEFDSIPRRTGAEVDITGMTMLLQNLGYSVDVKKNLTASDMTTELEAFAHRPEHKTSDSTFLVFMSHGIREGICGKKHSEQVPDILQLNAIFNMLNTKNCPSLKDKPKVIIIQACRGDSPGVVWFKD
T1 sequence (P29466 317-404 limits assumed): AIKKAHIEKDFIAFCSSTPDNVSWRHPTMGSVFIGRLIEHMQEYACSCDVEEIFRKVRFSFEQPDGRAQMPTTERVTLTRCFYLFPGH
Briefly: Enzyme assay with UV-visible substrate (Succinyl-Tyr-Val-Ala-Asp-pNitroanilide). In kind it is biochemical. As to the method:
1. Enzyme Assay with UV-Visible Substrate
This assay is run using an Succinyl-Tyr-Val-Ala-Asp-pNitroanilide substrate. Synthesis of analogous substrates is described by L. A. Reiter (Int. J. Peptide Protein Res. 43, 87-96 (1994)). The assay mixture contains:
The visible ICE assay is run in a 96-well microtiter plate. Buffer, ICE and DMSO (if inhibitor is present) are added to the wells in the order listed. The components are left to incubate at room temperature for 15 minutes starting at the time that all components are present in all wells. The microtiter plate reader is set to incubate at 37° C. After the 15 minute incubation, substrate is added directly to the wells and the reaction is monitored by following the release of the chromophore (pNA) at 405-603 nm at 37° C. for 20 minutes. A linear fit of the data is performed and the rate is calculated in mOD/min. DMSO is only present during experiments involving inhibitors, buffer is used to make up the volume to 100 μl in the other experiments.
For determination of enzyme inhibition constants (Ki) or the mode of inhibition (competitive, uncompetitive or noncompetitive), the rate data determined in the enzyme assays at varying inhibitor concentrations are computer-fit to standard enzyme kinetic equations (see I. H. Segel, Enzyme Kinetics, Wiley-Interscience, 1975).

The mark [3] stands for this setting: Homo sapiens, PBMC, Example 4 table.
The mark [4] stands for this setting: Homo sapiens, PBMC, Example 6 table.

The IC50 is the concentration that inhibits the measured activity by half. A high value points to lower potency. The melting point is the temperature, or range, at which the solid turns liquid. For `CC(=O)N[C@@H](Cc1ccc(O)cc1)C(=O)N[C@H](C(=O)N[C@@H](C)C(=O)N[C@H](CC(=O)O)C(=O)COCc1c(Cl)cccc1Cl)C(C)C` (mixture of isomers) [Compound 84b, (R,S)N-[N-(Acetyl)tyrosinyl-valinyl-alaninyl]-3-amino-5-(2,6-dichlorophenylmethyloxy)-4-oxo-pentanoic acid], the melting point fell in the range of 165 to 168 °C. This compound had a concentration for half-maximal inhibition (IC50) in data set [1] (setting [3]) of 500 nM. As to `C[C@H](NC(=O)c1nc(Cc2ccccc2)c[nH]1)C(=O)N[C@H](C=O)CC(=O)O` [Compound 20b, (3S)3-[N-(4-Benzylimidazole-2-carbonyl)-L-alaninyl]amino-4-oxobutanoic acid], the melting point is 113 to 115 °C. This compound gave an IC50 in data set [1] (setting [3]) of 16400 nM. For `C[C@H](NC(=O)c1ncc(CCc2ccccc2)[nH]1)C(=O)N[C@H](C=O)CC(=O)O` [Compound 20c, (3S)3-{N-[4-(2-Phenylethyl)imidazole-2-carbonyl]-L-alaninyl}amino-4-oxobutanoic acid], the melting point is 102 to 104 °C. In turn, `O=C[C@H](CC(=O)O)NC(=O)[C@@H]1CCCN1C(=O)c1nc(CCc2ccccc2)c[nH]1` [Compound 21c, (3S)3{N-[4-(2-Phenylethyl)imidazole-2-carbonyl]-L-prolinyl}amino-4-oxobutanoic acid] had a melting point of 101 to 103 °C.

As for `O=C[C@H](CC(=O)O)NC(=O)[C@@H]1CCCN1C(=O)c1nc(CCCc2ccccc2)c[nH]1` [Compound 21d, (3S)3-{N-[4-(3-Phenylpropyl)imidazole-2-carbonyl]-L-prolinyl}amino-4-oxo-butanoic acid], the melting point lay in the range of 91 to 94 °C. This compound also had an IC50 in data set [1] (setting [3]) of 4800 nM. For `COc1ccc(CCCc2c[nH]c(C(=O)N3CCC[C@H]3C(=O)N[C@H](C=O)CC(=O)O)n2)cc1` [Compound 21e, (3S)3-{N-[4-[3-(4-Methoxyphenyl)propyl]imidazole-2-carbonyl]-L-prolinyl}amino-4-oxobutanoic acid], in that order: 101 to 105 °C and 2900 nM. The Ki is a dissociation constant, usually derived from enzyme kinetics or from competition with a known ligand. A higher Ki goes with weaker binding. `O=C(O)C[C@H](NC(=O)Cn1c(Cc2ccccc2)ccc(NC(=O)CCc2ccccc2)c1=O)C(=O)CSCc1ccccc1Cl` [Compound 125a] came in with an inhibition constant (Ki) in data set [2] (Example 6 table) of 390 nM. In addition, the 50% inhibitory concentration (IC50) in data set [1] (Example 6 table) is more than 30000 nM. The compound `COc1cccc2nc(C(=O)[C@H](CC(=O)O)NC(=O)[C@H](C)n3cccc(NC(=O)CCc4ccccc4)c3=O)oc12` [Compound 126] came in with a Ki in data set [2] (Example 6 table) of 450 nM. The same compound returned an IC50 in data set [1] (setting [4]) of 1500 nM. For `COc1cccc2nc(C(=O)[C@H](CC(=O)O)NC(=O)Cn3c(Cc4ccccc4)ccc(NC(=O)CCc4ccccc4)c3=O)oc12` [Compound 127], in that order: 390 nM and 8000 nM. As for `O=C(O)C[C@H](NC(=O)Cn1c(Cc2ccccc2)ccc(NC(=O)CCc2ccccc2)c1=O)C(=O)c1ncc(-c2c(Cl)cccc2Cl)o1` [Compound 128], the Ki in data set [2] (Example 6 table) came to 40 nM. In data set [1] (setting [4]), this compound displayed an IC50 of 7500 nM. The corresponding values for `C[C@@H](C(=O)N[C@@H](CC(=O)O)C(=O)c1ncc(-c2c(Cl)cccc2Cl)o1)n1cccc(NC(=O)CCc2ccccc2)c1=O` [Compound 129] are 590 nM and 25000 nM. The corresponding values for `O=C[C@H](CC(=O)O)NC(=O)[C@@H]1CCCN2C(=O)C[C@H](NC(=O)CCc3ccccc3)C(=O)N12` [Compound 132a] are 5000 nM and more than 30000 nM. In the case of `O=C[C@H](CC(=O)O)NC(=O)[C@@H]1CCCN2CC[C@H](NC(=O)CCc3ccccc3)C(=O)N12` [Compound 133], the Ki in data set [2] (Example 6 table) was determined as 50000 nM. Moreover, the IC50 in data set [1] (setting [4]) is more than 30000 nM. For the compound `COc1cccc2nc(C(=O)[C@H](CC(=O)O)NC(=O)[C@@H]3CCCN4C(=O)CC[C@H](NC(=O)CCc5ccccc5)C(=O)N34)oc12` [Compound 135a], in data set [2] (Example 6 table), the Ki came out at 90 nM. Moreover, in data set [1] (setting [4]), it took 900 nM to reach half-maximal inhibition (IC50). Take `COc1cccc2oc(C(=O)[C@H](CC(=O)O)NC(=O)[C@@H]3CCCN4C(=O)CC[C@H](NC(=O)CCc5ccccc5)C(=O)N34)nc12` [Compound 135b]: the Ki in data set [2] (Example 6 table) is 320 nM. Besides, the 50% inhibitory concentration (IC50) in data set [1] (setting [4]) is 950 nM. The corresponding values for `O=C(O)C[C@H](NC(=O)[C@@H]1CCCN2C(=O)CC[C@H](NC(=O)CCc3ccccc3)C(=O)N12)C(=O)c1ncc(-c2c(Cl)cccc2Cl)o1` [Compound 137] are 40 nM and 250 nM.

Compound `CS(=O)(=O)N[C@H]1CCC(=O)N2CCC[C@@H](C(=O)N[C@H](C=O)CC(=O)O)N2C1=O` [Compound 139] came in with a Ki in data set [2] (Example 6 table) of 350 nM. This compound also displayed a half-maximal inhibitory concentration (IC50) in data set [1] (setting [4]) of 2000 nM. Compound `O=C[C@H](CC(=O)O)NC(=O)[C@@H]1Cc2ccccc2[C@H]2CCC[C@H](NC(=O)CCc3ccccc3)C(=O)N21` [Compound 140] showed a Ki in data set [2] (Example 6 table) of 870 nM. Further, the IC50 in data set [1] (setting [4]) was more than 30000 nM. In turn, `CC(C)[C@H](NC(=O)OCc1ccccc1)C(=O)N[C@@H](C)C(=O)N[C@@H](CC(=O)O)C(=O)c1ncc(-c2ccccc2C(F)(F)F)o1` [Compound 144] came in with an inhibition constant Ki in data set [2] (Example 6 table) of 320 nM. Moreover, the 50% inhibitory concentration (IC50) in data set [1] (setting [4]) is more than 20000 nM. For `CC(C)[C@H](NC(=O)OCc1ccccc1)C(=O)N[C@@H](C)C(=O)N[C@@H](CC(=O)O)C(=O)c1ncc(-c2ccccc2)o1` [Compound 145], in that order: 340 nM and 8500 nM. The corresponding values for `CC(C)[C@H](NC(=O)OCc1ccccc1)C(=O)N[C@@H](C)C(=O)N[C@@H](CC(=O)O)C(=O)c1ncc(-c2c(Cl)cccc2Cl)o1` [Compound 146] are 160 nM and 3800 nM. The compound `CC(C)[C@H](NC(=O)OCc1ccccc1)C(=O)N[C@@H](C)C(=O)N[C@@H](CC(=O)O)C(=O)c1ncc(-c2ccccc2Cl)o1` [Compound 147] displayed a Ki in data set [2] (Example 6 table) of 260 nM. The compound further showed an IC50 in data set [1] (setting [4]) of 8500 nM. For `CC(C)[C@H](NC(=O)OCc1ccccc1)C(=O)N[C@@H](C)C(=O)N[C@@H](CC(=O)O)C(=O)c1nccs1` [Compound 148], in that order: 6300 nM and 30000 nM. Compound `CC(C)[C@H](NC(=O)OCc1ccccc1)C(=O)N[C@@H](C)C(=O)N[C@@H](CC(=O)O)C(=O)c1cocn1` [Compound 149] gave a Ki in data set [2] (Example 6 table) of 14000 nM. The IC50 in data set [1] (setting [4]) was more than 30000 nM. Regarding `CC(C)[C@H](NC(=O)OCc1ccccc1)C(=O)N[C@@H](C)C(=O)NC(CC(=O)O)C(=O)c1ncc(-c2ccccc2)[nH]1` (some centres unmarked) [Compound 150], the affinity in data set [2] (Example 6 table), expressed as Ki, was 10000 nM. This compound also gave a half-inhibitory concentration (IC50) in data set [1] (setting [4]) of 30000 nM.

As for `CC(C)[C@H](NC(=O)OCc1ccccc1)C(=O)N[C@@H](C)C(=O)NC(CC(=O)O)C(=O)c1ncc[nH]1` (some centres unmarked) [Compound 151], the Ki in data set [2] (Example 6 table) worked out at 13000 nM. The compound further yielded an IC50 in data set [1] (setting [4]) of 30000 nM.

`CC(=O)N[C@@H](Cc1ccc(O)cc1)C(=O)N[C@H](C(=O)N[C@@H](C)C(=O)N[C@@H](CC(=O)O)C(=O)c1ncc(-c2c(Cl)cccc2Cl)s1)C(C)C` [Compound 154] came in with an inhibition constant Ki in data set [2] (Example 6 table) of 42 nM. In data set [1] (setting [4]), this compound had an IC50 of 2400 nM.

The compound `CC(=O)N[C@@H](Cc1ccc(O)cc1)C(=O)N[C@H](C(=O)N1C[C@H](Oc2ccccc2)C[C@H]1C(=O)N[C@@H](CC(=O)O)C(=O)c1ncc(-c2c(Cl)cccc2Cl)o1)C(C)C` [Compound 156] came in with an inhibition constant Ki in data set [2] (Example 6 table) of 1 nM. Moreover, in data set [1] (setting [4]), the midpoint of inhibition, the IC50, lay at 2700 nM. For `COc1cccc2nc(C(=O)[C@H](CC(=O)O)NC(=O)[C@@H]3C[C@@H](Oc4ccccc4)CN3C(=O)[C@@H](NC(=O)[C@H](Cc3ccc(O)cc3)NC(C)=O)C(C)C)oc12` [Compound 159], in that order: 1.7 nM and 8000 nM. The corresponding values for `CC(=O)N[C@H](C(=O)N1C[C@H](Oc2ccccc2)C[C@H]1C(=O)N[C@@H](CC(=O)O)C(=O)c1ncc(-c2c(Cl)cccc2Cl)o1)C(C)C` [Compound 160] are 145 nM and 2250 nM. For `CC(=O)N[C@@H](Cc1ccc(O)cc1)C(=O)N[C@H](C(=O)N[C@@H](C)C(=O)N[C@@H](CC(=O)O)C(=O)c1ncc(-c2c(Cl)cccc2Cl)o1)C(C)C` [Compound 163], in that order: 2.8 nM and 1200 nM. For the compound “(3S)t-Butyl N-(N-acetyl-(S)-tyrosinyl-(S)-valinyl-(S)-alaninyl)-3-amino-4-(2-(4-methoxybenzoxazolyl))-4-oxobutanoate [Compound 69b]”, the affinity in data set [2] (Example 4 table), expressed as Ki, was 50 nM. Also, in data set [1] (Example 4 table), 745 nM corresponded to half-maximal inhibition (IC50).
